In one series the target is Y. pestis Pla (Yersinia pestis, UniProt P17811). As to the kind of experiment: biochemical.
Series [1] has as its target T1, Pla (Yersinia pestis, UniProt P17811). As to the kind of experiment: biochemical.
For another series, the target named is T2, cathepsin E (Homo sapiens, UniProt P14091).
T2 construct: purchased R&D Systems 1294-AS-010
T2 sequence (P14091 54-396): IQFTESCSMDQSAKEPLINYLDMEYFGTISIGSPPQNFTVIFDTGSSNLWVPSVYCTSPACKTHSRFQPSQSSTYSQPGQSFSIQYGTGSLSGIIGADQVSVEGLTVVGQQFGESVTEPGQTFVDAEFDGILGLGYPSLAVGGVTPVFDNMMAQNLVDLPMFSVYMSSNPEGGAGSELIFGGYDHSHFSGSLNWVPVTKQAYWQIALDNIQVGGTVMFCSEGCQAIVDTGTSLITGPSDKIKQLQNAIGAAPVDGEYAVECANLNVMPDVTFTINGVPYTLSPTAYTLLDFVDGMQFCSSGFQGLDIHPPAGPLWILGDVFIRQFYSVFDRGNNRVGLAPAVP
As to the kind of experiment: Cathepsin E fluorometric counter-screen. The class given is biochemical. The note with it: z-score = number of standard deviations below DMSO control.

Series [2] in a line: Cytotoxicity to HeLa cells in serum-free culture (MTS). The note with it: human.
In another series the target is T3, HIV-1 protease (Human immunodeficiency virus type 1 group M subtype B, UniProt P04585).
T3 construct: Plasmin, tPA, uPA, Cathepsin D, Cathepsin E, and HIV-1 protease
As to the kind of experiment: HIV-1 protease counter-screen. The class given is biochemical. Conditions: % of the enzymatic activity of a DMSO non-inhibitory control.

Another series addresses Plasmin (Homo sapiens, UniProt P00747). Nature of the series: Plasmin inhibitory activity counter-screen (coupling enzyme). The class given is biochemical. Conditions: z-score = number of standard deviations the enzymatic activity falls below the DMSO non-inhibitory control.
The target of a further series is T4, cathepsin D (Homo sapiens, UniProt P07339).
T4 construct: purchased R&D Systems 1014-AS-010
Nature of the series: Cathepsin D fluorometric counter-screen. The class given is biochemical. Conditions: z-score = number of standard deviations below DMSO control.

The target in series [3] is T5, tissue plasminogen activator (tPA) (Homo sapiens, UniProt P00750).
T5 construct: purchased US Biological, Inc. T5600-30
As to the kind of experiment: tPA plasminogen activator counter-screen (Glu-Plg, S2251). The note with it: z-score = number of standard deviations below DMSO control. The class given is biochemical.

Series [4] addresses T6, urokinase type plasminogen activator (uPA) (Homo sapiens, UniProt P00749).
T6 construct: purchased US Biological, Inc. U2605-01
As to the kind of experiment: uPA plasminogen activator counter-screen (Glu-Plg, S2251). The series is classed as biochemical. The note with it: z-score = number of standard deviations below DMSO control.

In series [5] the target is T1, Pla. The class given is biochemical.
Target sequence in this assay (P17811 21-312 limits assumed): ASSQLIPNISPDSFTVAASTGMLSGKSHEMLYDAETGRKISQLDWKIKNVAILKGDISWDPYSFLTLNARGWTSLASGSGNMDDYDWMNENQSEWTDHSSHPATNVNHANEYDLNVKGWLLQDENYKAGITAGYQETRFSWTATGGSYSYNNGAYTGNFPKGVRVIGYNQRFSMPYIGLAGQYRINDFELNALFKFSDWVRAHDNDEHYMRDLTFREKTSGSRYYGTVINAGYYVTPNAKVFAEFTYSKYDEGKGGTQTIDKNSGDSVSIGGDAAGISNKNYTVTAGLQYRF

Where a SMILES comes first, the peptide text is derived from it. [ ]: non-standard residue; d: D form. The star is where a group is joined. Sta = CC(C)C[C@H](N)[C@@H](O)CC(=O)O; Isovaleryl = CC(C)CC(=O)* Bounds are passed on as bounds.

Plasmin, sequence (P00747 581-810 limits assumed): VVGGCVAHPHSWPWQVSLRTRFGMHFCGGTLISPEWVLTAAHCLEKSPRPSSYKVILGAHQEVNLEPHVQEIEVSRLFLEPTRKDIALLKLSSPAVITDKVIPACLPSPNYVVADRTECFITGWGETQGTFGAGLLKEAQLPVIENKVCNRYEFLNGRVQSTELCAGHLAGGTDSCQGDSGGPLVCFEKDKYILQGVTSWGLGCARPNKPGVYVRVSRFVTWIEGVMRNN
Plasmin, sequence (P00747 97-580 partner limits assumed): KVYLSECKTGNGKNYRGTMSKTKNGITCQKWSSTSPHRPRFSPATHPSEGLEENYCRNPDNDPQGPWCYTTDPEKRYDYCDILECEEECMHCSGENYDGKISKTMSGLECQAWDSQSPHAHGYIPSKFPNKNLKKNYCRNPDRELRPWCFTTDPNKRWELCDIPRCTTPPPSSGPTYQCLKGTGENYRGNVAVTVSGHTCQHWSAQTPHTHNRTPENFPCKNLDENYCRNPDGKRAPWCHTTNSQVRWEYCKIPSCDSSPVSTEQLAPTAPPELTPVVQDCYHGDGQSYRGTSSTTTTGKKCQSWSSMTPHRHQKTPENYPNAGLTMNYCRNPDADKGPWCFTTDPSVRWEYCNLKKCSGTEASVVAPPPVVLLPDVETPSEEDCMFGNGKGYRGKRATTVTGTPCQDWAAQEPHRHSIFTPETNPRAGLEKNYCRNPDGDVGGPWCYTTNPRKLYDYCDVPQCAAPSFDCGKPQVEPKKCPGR
Y. pestis Pla, sequence (P17811 21-312 limits assumed): as the sequence (P17811 21-312 limits assumed) above
T4 sequence (P07339 65-412): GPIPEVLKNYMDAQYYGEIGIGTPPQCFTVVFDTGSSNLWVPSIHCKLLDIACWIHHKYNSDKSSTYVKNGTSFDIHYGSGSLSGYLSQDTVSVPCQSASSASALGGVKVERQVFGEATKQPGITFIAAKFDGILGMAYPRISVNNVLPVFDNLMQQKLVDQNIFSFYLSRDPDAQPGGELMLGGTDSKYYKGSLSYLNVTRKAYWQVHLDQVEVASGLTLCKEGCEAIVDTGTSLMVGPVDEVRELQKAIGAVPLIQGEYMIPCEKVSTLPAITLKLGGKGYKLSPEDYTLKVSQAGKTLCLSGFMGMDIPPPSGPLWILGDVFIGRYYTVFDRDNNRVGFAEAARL
T5 sequence (P00750 36-562): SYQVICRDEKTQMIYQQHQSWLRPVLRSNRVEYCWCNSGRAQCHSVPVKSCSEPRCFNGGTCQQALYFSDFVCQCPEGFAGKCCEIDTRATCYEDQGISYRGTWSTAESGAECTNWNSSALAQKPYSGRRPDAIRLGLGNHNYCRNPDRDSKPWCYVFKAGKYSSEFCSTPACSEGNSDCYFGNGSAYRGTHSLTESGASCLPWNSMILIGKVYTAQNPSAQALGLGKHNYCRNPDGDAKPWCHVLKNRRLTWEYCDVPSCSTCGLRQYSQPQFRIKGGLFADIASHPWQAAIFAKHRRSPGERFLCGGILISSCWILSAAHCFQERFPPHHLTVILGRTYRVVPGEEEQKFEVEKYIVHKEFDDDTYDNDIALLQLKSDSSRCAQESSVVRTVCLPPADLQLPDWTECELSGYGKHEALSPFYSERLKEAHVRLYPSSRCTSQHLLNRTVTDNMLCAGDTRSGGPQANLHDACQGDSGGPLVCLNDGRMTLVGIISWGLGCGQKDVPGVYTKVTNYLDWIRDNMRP

Regarding `COC(=O)c1c(C)oc2ccc(N(C(=O)c3ccncc3)S(=O)(=O)c3ccc(F)cc3C)cc12` [A], the IC50 against Y. pestis Pla is 6.6 µM.

Consider `NC(N)=NCCC[C@H](N)C(=O)NCC(=O)O` [Arg-Gly] (H-Arg-Gly-OH), for which the Ki at Pla [1] was 5200 µM.

As for `NCCCC[C@H](NC(=O)[C@@H](N)CCCN=C(N)N)C(=O)O` [Arg-Lys] (H-Arg-Lys-OH), the Ki on Pla [1] amounted to 900 µM.

In turn, `CC(C)[C@H](NC(=O)[C@@H](N)CCCNC(=N)N)C(=O)O` [Arg-Val] (H-Arg-Val-OH; N-terminus and C-terminus assumed) gave a Ki at Pla [1] of 4800 µM.

`O=S(=O)(Nc1ccccc1-c1ccccc1)c1ccc(Br)s1` [B] registered an IC50 against Y. pestis Pla of 8.9 µM.

In the case of `COc1ccc(S(=O)(=O)Nc2ccccc2Oc2ccccc2)cc1C` [C], on Y. pestis Pla, 22 µM corresponded to half-maximal inhibition (IC50).

In the case of `O=S(=O)(Nc1cc(Cl)ccc1Oc1ccccc1)c1ccc2c(c1)OCCO2` [Compound 1], the “Cathepsin-E Z-Score at 50 μM” value at cathepsin E was −0.1. In series [2], this compound yielded a CC50 above 100 µM. At HIV-1 protease, testing at 50 µM gave an inhibition of 10%. Moreover, the “Plasmin Z-Score at 50 μM” value on Plasmin is 4.9. Also, half-maximal inhibition against Y. pestis Pla (IC50) was put at 4.25 µM. For the same compound, on cathepsin D, the “Cathepsin-D Z-Score at 50 μM” value is listed as −0.2. The “tPA Z-Score at 50 μM” value in series [3] is −0.3. Moreover, the “uPA Z-Score at 50 μM” value in [4] was determined as 0.5.

Turning to `O=S(=O)(Nc1ccccc1-c1ccccc1)c1cccs1` [Compound 2], the “Cathepsin-E Z-Score at 50 μM” value at cathepsin E is recorded as −0.3. Besides, the CC50 in series [2] was found to be 62 µM. Further, at 50 µM the inhibition against HIV-1 protease was 2%. The “Plasmin Z-Score at 50 μM” value on Plasmin is listed as 1.8. Moreover, the IC50 against Y. pestis Pla is 4.3 µM. For the same compound, the “Cathepsin-D Z-Score at 50 μM” value at cathepsin D is −1.6. Further, the “tPA Z-Score at 50 μM” value in [3] was 0.5. The “uPA Z-Score at 50 μM” value in series [4] worked out at 0.5.

For the compound `O=S(=O)(Nc1cc(Cl)ccc1Oc1ccccc1)c1cccs1` [Compound 3], the “Cathepsin-E Z-Score at 50 μM” value at cathepsin E is on record as 0.4. Further, in series [2], it took 49 µM to reach half-maximal cytotoxicity (CC50) and the selectivity ratio was around 50. At HIV-1 protease, this compound returned an inhibition at 50 µM of 13%. For the same compound, the “Plasmin Z-Score at 50 μM” value on Plasmin came out at 2.5. The compound also displayed an IC50 on Y. pestis Pla of 1 µM. Moreover, on cathepsin D, the “Cathepsin-D Z-Score at 50 μM” value came to 0. Moreover, the “tPA Z-Score at 50 μM” value in series [3] is given as 0.3. For the same compound, in [4], the “uPA Z-Score at 50 μM” value is given as 0.5.

Regarding `O=[N+]([O-])c1ccccc1S(=O)(=O)Nc1cc(Cl)ccc1Oc1ccccc1` [Compound 4], the “Cathepsin-E Z-Score at 50 μM” value on cathepsin E stood at 0.9. In series [2], this compound had a CC50 of 47 µM. Moreover, the inhibition at 50 µM at HIV-1 protease amounted to 11%. Further, the “Plasmin Z-Score at 50 μM” value at Plasmin was 1.4. This compound also came in with an IC50 at Y. pestis Pla of 9.9 µM. Besides, the “Cathepsin-D Z-Score at 50 μM” value on cathepsin D was 0.6. Further, the “tPA Z-Score at 50 μM” value in series [3] worked out at 0.4. Also, the “uPA Z-Score at 50 μM” value in series [4] worked out at 1.

On to `O=S(=O)(Nc1ccccc1C1=NCCc2ccccc21)c1ccc(Cl)cc1` [D], for which the IC50 at Y. pestis Pla turned out to be 35.8 µM.

As for `O=C(O)CN(CCN(CC(=O)O)CC(=O)O)CC(=O)O` [EDTA], at Pla [5], the “Inhibitory effect against Pla” value is on record as “enhance activity”.

As for `O=C(O)CN(CCOCCOCCN(CC(=O)O)CC(=O)O)CC(=O)O` [EGTA], at Pla [5], the “Inhibitory effect against Pla” value was “enhance activity”.

In the case of `CC(=O)Nc1ccc(S(=O)(=O)Nc2ccccc2Oc2ccccc2)cc1` [E], the half-maximal inhibitory concentration (IC50) against Y. pestis Pla worked out at 50.4 µM.

With `COc1ccc(S(=O)(=O)Nc2ccccc2Oc2ccccc2)c(OC)c1` [F], the IC50 on Y. pestis Pla was determined as 52.3 µM.

As to `COc1ccc(C)cc1S(=O)(=O)Nc1cc(Cl)ccc1Oc1ccccc1` [G], the IC50 at Y. pestis Pla worked out at 84.2 µM.

In turn, `Cc1ccc(S(=O)(=O)Nc2ccccc2C(=O)c2ccccc2)cc1` [H] showed an IC50 against Y. pestis Pla of 100 µM.

`O=S(=O)(Nc1ccccc1Oc1ccccc1)c1cc(Cl)ccc1Cl` [I] showed an IC50 on Y. pestis Pla of 139 µM.

Regarding `NCCCC[C@H](N)C(=O)NCC(=O)O` [Lys-Gly] (H-Lys-Gly-OH), the Ki at Pla [1] is 5600 µM.

The compound `NCCCC[C@H](NC(=O)[C@@H](N)CCCCN)C(=O)O` [Lys-Lys] gave a Ki at Pla [1] of 4500 µM.

Regarding `CC(C)[C@H](NC(=O)[C@@H](N)CCCCN)C(=O)O` [Lys-Val, reference compound] (H-Lys-Val-OH; C-terminus assumed), the inhibition at 16000 µM on Y. pestis Pla (read-out: Average inhibition) was 60%. This compound returned a Ki on Pla [1] of 8400 µM.

As for `CC(C)CC(=O)N[C@H](C(=O)N[C@H](C(=O)N[C@@H](CC(C)C)[C@@H](O)CC(=O)N[C@@H](C)C(=O)N[C@@H](CC(C)C)[C@@H](O)CC(=O)O)C(C)C)C(C)C` [pepstatin] (Isovaleryl-VV[Sta]A[Sta]-OH), the “Inhibitory effect against Pla” value on Pla [5] was “no inhibitory effect”.

The values are drawn from patent US20120064062A1 (priority 2010, published 2012).
